The values below come from patent US20240092784A1, “CONDENSED HETEROCYCLIC COMPOUND” (NISSAN CHEMICAL CORPORATION, priority 2020, published 2024).

Each structure is given as a SMILES string. pIC50: −log10 of the molar value. Counter-ions that a name gives are not always drawn.

The assay deals with human SPR (Homo sapiens (Human), UniProt P35270). The experiment in a line: Evaluation Example 2: Measurement of human SPR inhibitory activity (seven concentrations, sepiapterin absorbance at 420 nm). The conditions noted are these: Evaluation Example 2, seven concentrations 0.14 nM to 100 nM, 240 minutes at room temperature, read-out: IC50. It is filed as biochemical. Summed up: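 Reactions ran 240 min at room temperature in 100 mM Tris-HCl pH 7.5 with 0.01% BSA. They contained tag-cleaved, E. coli-expressed full-length human SPR (diluted to 150 ng/mL), seven compound concentrations from 0.14 to 100 nM, and sepiapterin/NADPH added as a 120 μM/160 μM solution. Inhibition was calculated from sepiapterin absorbance at 420 nm.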
Chain of human SPR (P35270 whole entry): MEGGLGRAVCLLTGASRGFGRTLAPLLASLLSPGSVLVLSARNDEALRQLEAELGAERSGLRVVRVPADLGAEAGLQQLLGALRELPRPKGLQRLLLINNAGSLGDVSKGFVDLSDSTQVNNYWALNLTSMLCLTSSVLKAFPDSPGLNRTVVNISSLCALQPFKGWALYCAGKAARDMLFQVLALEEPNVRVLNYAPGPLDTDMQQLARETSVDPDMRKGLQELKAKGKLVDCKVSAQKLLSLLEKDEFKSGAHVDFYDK

By pIC50 is commonly meant the IC50 on a negative log10 scale, so that one unit is a factor of ten. As for `CC[C@@H]1CCCN1C(=O)/C=C/c1c(C)nn2c(O)c(C(=O)NC3CC3)c(=O)n(CC(C)C)c12` [compound 610, (R,E)-N-Cyclopropyl-3-(3-(2-ethylpyrrolidin-1-yl)-3-oxoprop-1-en-1-yl)-7-hydroxy-4-isobutyl-2-methyl-5-oxo-4,5-dihydropyrazolo[1,5-a]pyrimidine-6-carboxamide], the pIC50 was 8.79.

Turning to `Cc1nn2c(O)c(C(=O)NC3CC3)c(=O)n(CC(C)C)c2c1/C=C/C(=O)N1CCN(C2CC(F)(F)C2)C[C@@H]1C` [Synthesis Example 671, (S,E)-N-Cyclopropyl-3-(3-(4-(3,3-difluorocyclobutyl)-2-methylpiperazin-1-yl)-3-oxoprop-1-en-1-yl)-7-hydroxy-4-isobutyl-2-methyl-5-oxo-4,5-dihydropyrazolo[1,5-a]pyrimidine-6-carboxamide], the pIC50 was 8.83.

Consider `Cc1cn[nH]c1-c1cc2n(CC(C)(C)C)c(=O)c(C(=O)NC3CC3)c(O)n2n1` [Synthesis Example 287, N-Cyclopropyl-7-hydroxy-2-(4-methyl-1H-pyrazol-5-yl)-4-neopentyl-5-oxo-4,5-dihydropyrazolo[1,5-a]pyrimidine-6-carboxamide], for which the pIC50 was 8.60.

For `CC(C)Cn1c(=O)c(C(=O)NC2CC2)c(O)n2ncc(C(=O)N[C@@H](C)c3ccccn3)c12` [Synthesis Example 218, (S)-N6-Cyclopropyl-7-hydroxy-4-isobutyl-5-oxo-N3-(1-(pyridin-2-yl)ethyl)-4,5-dihydropyrazolo[1,5-a]pyrimidine-3,6-dicarboxamide], the negative-log IC50 (pIC50) was 9.05.

As for `CC(C)(C)Cn1c(=O)c(C(=O)NC2CC2)c(O)n2nc(-c3[nH]ncc3Cl)cc12` [Synthesis Example 305, 2-(4-Chloro-1H-pyrazol-5-yl)-N-cyclopropyl-7-hydroxy-4-neopentyl-5-oxo-4,5-dihydropyrazolo[1,5-a]pyrimidine-6-carboxamide], the negative logarithm of the IC50 (pIC50) is 8.65.

Consider `CC(C)Cn1c(=O)c(C(=O)NC2CC2)c(O)n2nc(-c3cccnc3N)c(/C=C/C(=O)N3CCOCC3)c12` [compound 449, (E)-2-(2-Aminopyridin-3-yl)-N-cyclopropyl-7-hydroxy-4-isobutyl-3-(3-morpholino-3-oxoprop-1-en-1-yl)-5-oxo-4,5-dihydropyrazolo[1,5-a]pyrimidine-6-carboxamide], for which the pIC50 is 9.08.

`C/C(=C\c1cnn2c(O)c(C(=O)NC3CC3)c(=O)n(CC(C)C)c12)C(=O)N1CCOCC1` [Synthesis Example 254, (E)-N-Cyclopropyl-7-hydroxy-4-isobutyl-3-(2-methyl-3-morpholino-3-oxoprop-1-en-1-yl)-5-oxo-4,5-dihydropyrazolo[1,5-a]pyrimidine-6-carboxamide]: the pIC50 is 9.08.

With `CC(C)Cn1c(=O)c(C(=O)NC2CC2)c(O)n2ncc(/C=C/C(=O)N3C[C@@H]4C[C@H]3CO4)c12` [compound 539, 3-((E)-3-((1S,4S)-2-Oxa-5-azabicyclo[2.2.1]heptan-5-yl)-3-oxoprop-1-en-1-yl)-N-cyclopropyl-7-hydroxy-4-isobutyl-5-oxo-4,5-dihydropyrazolo[1,5-a]pyrimidine-6-carboxamide], the pIC50 was 9.19.

Take `O=C(NC1CC1)c1c(O)n2ncc(/C=C/C(=O)N3C4CCC3COC4)c2n(CC2(F)CC2)c1=O` [Synthesis Example 376, (E)-3-(3-(3-Oxa-8-azabicyclo[3.2.1]octan-8-yl)-3-oxoprop-1-en-1-yl)-N-cyclopropyl-4-((1-fluorocyclopropyl)methyl)-7-hydroxy-5-oxo-4,5-dihydropyrazolo[1,5-a]pyrimidine-6-carboxamide]: the pIC50 was 9.14.

As for `CC(C)Cn1c(=O)c(C(=O)NC2CC2)c(O)n2ncc(/C=C/C(=O)N3CCNCC3)c12` [compound 508, (E)-N-Cyclopropyl-7-hydroxy-4-isobutyl-5-oxo-3-(3-oxo-3-(piperazin-1-yl)prop-1-en-1-yl)-4,5-dihydropyrazolo[1,5-a]pyrimidine-6-carboxamide hydrochloride], the pIC50 is 9.11.

Regarding `Cc1c(N)nn2c(O)c(C(=O)NC3CC3)c(=O)n(CC(C)(C)C)c12` [Synthesis Example 437, 2-Amino-N-cyclopropyl-7-hydroxy-3-methyl-4-neopentyl-5-oxo-4,5-dihydropyrazolo[1,5-a]pyrimidine-6-carboxamide hydrochloride], the pIC50 is 8.86.

For `CC(C)Cn1c(=O)c(C(=O)NC2CC2)c(O)n2ncc(/C=C/C(=O)N3CCC[C@@H]3C#N)c12` [compound 496, (R,E)-3-(3-(2-Cyanopyrrolidin-1-yl)-3-oxoprop-1-en-1-yl)-N-cyclopropyl-7-hydroxy-4-isobutyl-5-oxo-4,5-dihydropyrazolo[1,5-a]pyrimidine-6-carboxamide], the pIC50 is 9.12.

With `CC(C)(C)Cn1c(=O)c(C(=O)NC2CC2)c(O)n2nc(-c3cnccc3C#N)cc12` [Synthesis Example 294, 2-(4-Cyanopyridin-3-yl)-N-cyclopropyl-7-hydroxy-4-neopentyl-5-oxo-4,5-dihydropyrazolo[1,5-a]pyrimidine-6-carboxamide], the pIC50 is 8.65.

`CC(C)Cn1c(=O)c(C(=O)NC2CC2)c(O)n2ncc(/C=C/C(=O)N3CCC[C@@H]3C(C)(C)O)c12` [compound 589, (R,E)-N-Cyclopropyl-7-hydroxy-3-(3-(2-(2-hydroxypropan-2-yl)pyrrolidin-1-yl)-3-oxoprop-1-en-1-yl)-4-isobutyl-5-oxo-4,5-dihydropyrazolo[1,5-a]pyrimidine-6-carboxamide]: the pIC50 was 8.87.

Take `CC(C)Cn1c(=O)c(C(=O)NC2CC2)c(O)n2ncc(/C=C/C(=O)N3C[C@H](C)O[C@@H](C)C3)c12` [compound 490, N-Cyclopropyl-3-((E)-3-((2S,6S)-2,6-dimethylmorpholino)-3-oxoprop-1-en-1-yl)-7-hydroxy-4-isobutyl-5-oxo-4,5-dihydropyrazolo[1,5-a]pyrimidine-6-carboxamide]: the pIC50 was 9.06.

Regarding `COCC1CCN(C(=O)/C=C/c2cnn3c(O)c(C(=O)NC4CC4)c(=O)n(CC(C)C)c23)CC1` [compound 475, (E)-N-Cyclopropyl-7-hydroxy-4-isobutyl-3-(3-(4-(methoxymethyl)piperidin-1-yl)-3-oxoprop-1-en-1-yl)-5-oxo-4,5-dihydropyrazolo[1,5-a]pyrimidine-6-carboxamide], the pIC50 was 9.07.

For the compound `Cc1cnc(CNC(=O)c2cnn3c(O)c(C(=O)NC4CC4)c(=O)n(CC(C)C)c23)cn1` [Synthesis Example 224, N6-Cyclopropyl-7-hydroxy-4-isobutyl-N3-((5-methylpyrazin-2-yl)methyl)-5-oxo-4,5-dihydropyrazolo[1,5-a]pyrimidine-3,6-dicarboxamide], the pIC50 is 9.11.

Turning to `Cc1nn2c(O)c(C(=O)NC3CC3)c(=O)n(CC(C)C)c2c1/C=C/C(=O)N1CCCC12CCN(CC(F)(F)F)CC2` [Synthesis Example 666, (E)-N-Cyclopropyl-7-hydroxy-4-isobutyl-2-methyl-5-oxo-3-(3-oxo-3-(8-(2,2,2-trifluoroethyl)-1,8-diazaspiro[4.5]decan-1-yl)prop-1-en-1-yl)-4,5-dihydropyrazolo[1,5-a]pyrimidine-6-carboxamide], the pIC50 was 8.67.
